Source: patent publication US3992391A, “1,3-Disubstituted thiourea compounds and preparation thereof” (priority 1972, dated 1976)
Counter-ions that a name gives are not always drawn.

What was measured:
[1] = Hypoxia test (mouse), reduced pressure, survival time; assay type: in vivo, male mice (dd-strain); details: reduced pressure 145 mmHg
Experimental: (§1) Male mice (dd-strain) and rats (wister-strain) were taken to a closed room which was filled with a gas mixture consisting of 1.5 % oxygen and 98.5 % nitrogen, or was conditioned in reduced atmospheric pressure (145 mmHg). In the other hand, mice and rats were given sodium cyanide (10 mg/kg, i.p.). These animals died after a few minutes in such conditions. 1-(3'-Pyridyl)-3-(2'-hydroxyethyl)thiourea HCl was given 1 hour before these hypoxia tests.
(§2) In the Tables data mean the increase percent of the survival time to that of control.

phosphorylase = test: Brain phosphorylase after triethyl tin sulfate cerebral edema; assay type: in vivo; details: rats
Experimental: (§3) Cerebral edema was induced in rats by a triethyl tin sulfate (5.0 mg/kg, i.p.) made on the whole brain. Edema was measured by the increase in water content, lactate, phosphorylase activity and the decrease in glycogen, Na^+, K^+ - ATPase activity of the whole brain.
(§4) 1-(3'-Pyridyl)-3-(2'-hydroxyethyl)thiourea HCl was given 1 hour before and 24, 48 hours after the lesion treatment and the animals were killed by decapitation 72 hours after the lesion treatment.

[2] = Hypoxia test (rat), reduced pressure, survival time; assay type: in vivo, rats (wister-strain); details: reduced pressure 145 mmHg
Experimental: as §1, §2

Na^+, K^+ - ATPase = test: Brain Na^+, K^+ - ATPase after triethyl tin sulfate cerebral edema; assay type: in vivo; details: rats
Experimental: as §3, §4

[3] = tested on: distribution of ^14 C - glucose to brain; test: Distribution of ^14 C - glucose(U) to brain; assay type: in vivo, mouse; details: for ^14 C-glucose, Brain / ^14 C-glucose, Brain/Plasma / ^14 C-glucose, Plasma: mouse, 300 mg/kg oral
Experimental: ^14 C - glucose(U) was given intravenously (1.0 μC/mouse), and the animals were killed by decapitation 10 minutes after ^14 C - glucose administration. 1-(3'-Pyridyl)-3-(2'-hydroxyethyl)thiourea HCl was given orally 300 mg/kg before ^14 C - glucose administration.

[4] = Prolonging effect on lethal time under various hypoxic conditions (mice and rats, all tests together); assay type: in vivo, mice (dd-strain) and rats (wister-strain); details: 100, 300 mg/kg p.o., 100 mg/kg s.c., and 30 mg/kg i.v.
[5] = Hypoxia test (mouse), KCN, survival time; assay type: in vivo, male mice (dd-strain); details: KCN 10 mg/kg i.p.
[6] = Haemodynamic action in anesthetized dogs; assay type: in vivo
Experimental: To study of 1-(3'-pyridyl)-3-(2'-hydroxyethyl)thiourea HCl on the haemodynamic action, five dogs of either sex were used under sodium pentobarbital anesthesia (30 mg/kg i.v.), the common carotid artery blood flow and the femoral artery blood flow were measured by the electromagnetic flow meter and the systolic blood pressure in the femoral artery was recorded with the pressure transducer.

[7] = tested on: cardiac carbohydrate, lactate and fat; test: Cardiac carbohydrate, lactate and fat under the influence of isoproterenol in an anoxic condition; assay type: in vivo, male rats of wister-strain; details: rats, 1.0 mg/kg i.v.
Experimental: Male rats of wister - strain served as experimental animals. Isoproterenol in a dose of 3.0 μg/kg was injected intravenously to the animals, and 5 minutes later, the rat was taken to a closed room which was filled with a mixture gas consisting of 5 % oxygen and 95 % nitrogen. After the rat was kept in the above mentioned gas chamber for 5 minutes, they were killed by cervical dislocation. The anoxic state of the heart was measured by the cardiac carbohydrate (glycogen, pyruvate), lactate and fat [non-esterifiedfatty acid (hereinafter, referred to as NEFA), triglyceride (hereinafter, referred to as TG)].

[8] = Brain water content after triethyl tin sulfate cerebral edema; assay type: in vivo; details: rats; for H2O, Gray: gray matter; for H2O, White: white matter
Experimental: as §3, §4

[9] = Hypoxia test (rat), normal pressure, survival time; assay type: in vivo, rats (wister-strain); details: 1.5 % O2 + 98.5 % N2
Experimental: as §1, §2

[10] = tested on: cerebral carbohydrate and lactate metabolism; test: Brain glycogen and lactate after triethyl tin sulfate cerebral edema; assay type: in vivo; details: rats
Experimental: as §3, §4

[11] = heart, 5 minutes before isoproterenol
[12] = heart, 10 minutes before isoproterenol
[13] = heart, 30 minutes before isoproterenol
[14] = heart, 60 minutes before isoproterenol

For `OCCNC(=S)Nc1cccnc1` [1-(3'-pyridyl)-3-(2'-hydroxyethyl)thiourea hydrochloride], the “increase percent of the survival time to that of control” value (“increase percent of the survival time” below) ([1]; 30 mg/kg i.v.) was 141%, the “increase percent of the survival time” value ([1]; 30 mg/kg p.o.) was 35% and the “increase percent of the survival time” value ([1]; 100 mg/kg p.o.) was 64%. For the same compound, the “increase percent of the survival time” value ([1]; 100 mg/kg s.c.) was 128%, the “increase percent of the survival time” value ([1]; 300 mg/kg p.o.) was 132% and the “Phosphorylase A/T × 100 (Active phosphorylase/Total phosphorylase)” value (phosphorylase; 30 mg/kg p.o.) was 73.3. For the same compound, the “Phosphorylase, Active” value (phosphorylase; 30 mg/kg p.o.) was 0.197 units/g, the “Phosphorylase A/T × 100 (Active phosphorylase/Total phosphorylase)” value (phosphorylase; 100 mg/kg p.o.) was 71.5 and the “Phosphorylase, Active” value (phosphorylase; 100 mg/kg p.o.) was 0.192 units/g. For the same compound, the “Phosphorylase A/T × 100 (Active phosphorylase/Total phosphorylase)” value (phosphorylase; 300 mg/kg p.o.) was 67.8, the “Phosphorylase, Active” value (phosphorylase; 300 mg/kg p.o.) was 0.187 units/g and the “increase percent of the survival time” value ([2]; 30 mg/kg i.v.) was 135%. For the same compound, the “increase percent of the survival time” value ([2]; 100 mg/kg s.c.) was 132%, the ATPase (Na^+, K^+ - ATPase; 30 mg/kg p.o.) was 1.146 μ moles Pi/g/hr and the ATPase (Na^+, K^+ - ATPase; 100 mg/kg p.o.) was 1.193 μ moles Pi/g/hr. The ATPase (Na^+, K^+ - ATPase; 300 mg/kg p.o.) was 1.246 μ moles Pi/g/hr, the “effect on the decrease in Na^+, K^+ - ATPase activity of the injured brain” value (Na^+, K^+ - ATPase; 100 and 300 mg/kg orally) was “antagonized” and the “distribution of ^14 C - glucose to brain” value ([3]; 300 mg/kg orally, given 60 - 120 minutes before ^14 C - glucose) was “increased”. For the same compound, the “^14 C-glucose, Brain” value ([3]; 30 min before ^14 C-glucose) was 88.90 ± 12.69 × 10^3 dpm/g, the “^14 C-glucose, Brain/Plasma” value ([3]; 30 min before ^14 C-glucose) was 2.52 ± 0.59 and the “^14 C-glucose, Plasma” value ([3]; 30 min before ^14 C-glucose) was 35.22 ± 2.36 × 10^3 dpm/ml. For the same compound, the “^14 C-glucose, Brain” value ([3]; 60 min before ^14 C-glucose) was 93.76 ± 5.33 × 10^3 dpm/g, the “^14 C-glucose, Brain/Plasma” value ([3]; 60 min before ^14 C-glucose) was 2.48 ± 0.44 and the “^14 C-glucose, Plasma” value ([3]; 60 min before ^14 C-glucose) was 37.88 ± 3.15 × 10^3 dpm/ml. The “^14 C-glucose, Brain” value ([3]; 120 min before ^14 C-glucose) was 96.80 ± 6.80 × 10^3 dpm/g, the “^14 C-glucose, Brain/Plasma” value ([3]; 120 min before ^14 C-glucose) was 2.69 ± 0.15 and the “^14 C-glucose, Plasma” value ([3]; 120 min before ^14 C-glucose) was 35.93 ± 0.95 × 10^3 dpm/ml. The “survival in comparison with the survival time of each control group” value [4] was “survived twice or more”, the “increase percent of the survival time” value ([5]; 30 mg/kg i.v.) was 185% and the “increase percent of the survival time” value ([5]; 30 mg/kg p.o.) was 42%. For the same compound, the “increase percent of the survival time” value ([5]; 100 mg/kg p.o.) was 189%, the “increase percent of the survival time” value ([5]; 100 mg/kg s.c.) was 254% and the “increase percent of the survival time” value ([5]; 300 mg/kg p.o.) was 287%. The “haemodynamic effects in comparison with papaverine hydrochloride” value [6] was “relatively weak”, the “action to the common carotid artery blood flow” value ([6]; 0.1 - 1.0 mg/kg intra-common carotid artery) was 12 - 39% and the “carotid artery blood flow increase” value ([6]; 3 - 30 mg/kg intravenously) was 6 - 24%. For the same compound, the “femoral artery blood flow increase” value ([6]; 3 - 30 mg/kg intravenously) was 4 - 18%, the blood pressure decrease ([6]; 3 - 30 mg/kg intravenously, systolic, femoral artery) was 8 - 14% and the “effect on the increase in NEFA level” value ([7]; heart) was “antagonized”. The “effect on the increase in lactate level” value ([7]; heart) was “antagonized”, the “effect on the increase in pyruvate level” value ([7]; heart) was “antagonized” and the Glycogen [7, 11] was 5.68 ± 0.45 mg/g. The Lactate [7, 11] was 123.2 ± 10.7 µg/g, the NEFA [7, 11] was 4.26 ± 0.35 µM/g and the Pyruvate [7, 11] was 38.4 ± 2.42 µg/g. For the same compound, the TG [7, 11] was 2.15 ± 0.21 mg/g, the Glycogen [7, 12] was 6.05 ± 0.51 mg/g and the Lactate [7, 12] was 95.1 ± 8.2 µg/g. It also gave an NEFA [7, 12] of 4.12 ± 0.29 µM/g, a Pyruvate [7, 12] of 29.5 ± 3.15 µg/g and a TG [7, 12] of 1.98 ± 0.13 mg/g. The Glycogen [7, 13] was 6.97 ± 0.41 mg/g, the Lactate [7, 13] was 92.5 ± 9.7 µg/g and the NEFA [7, 13] was 3.87 ± 0.32 µM/g. The Pyruvate [7, 13] was 25.2 ± 2.07 µg/g, the TG [7, 13] was 1.87 ± 0.19 mg/g and the Glycogen [7, 14] was 5.92 ± 0.62 mg/g. The Lactate [7, 14] was 140.6 ± 12.3 µg/g, the NEFA [7, 14] was 4.58 ± 0.36 µM/g and the Pyruvate [7, 14] was 39.3 ± 2.76 µg/g. The TG [7, 14] was 2.25 ± 0.18 mg/g, the “effect on the decrease in cardiac glycogen content” value [7] was “antagonized” and the “significance of the antagonizing effect” value ([7]; administered 10 - 30 minutes before isoproterenol) was “significantly”. The “H2O, Gray” value ([8]; 30 mg/kg p.o.) was 81.6%, the “H2O, White” value ([8]; 30 mg/kg p.o.) was 79.5% and the “H2O, Gray” value ([8]; 100 mg/kg p.o.) was 80.2%. The “H2O, White” value ([8]; 100 mg/kg p.o.) was 78.3%, the “H2O, Gray” value ([8]; 300 mg/kg p.o.) was 79.4% and the “H2O, White” value ([8]; 300 mg/kg p.o.) was 77.8%. For the same compound, the “increase percent of the survival time” value ([9]; 30 mg/kg i.v.) was 148%, the “increase percent of the survival time” value ([9]; 30 mg/kg p.o.) was 36% and the “increase percent of the survival time” value ([9]; 100 mg/kg p.o.) was 75%. For the same compound, the “increase percent of the survival time” value ([9]; 100 mg/kg s.c.) was 192%, the “increase percent of the survival time” value ([9]; 300 mg/kg p.o.) was 153% and the Glycogen ([10]; 30 mg/kg p.o.) was 1.03 mg/g. It also gave a Lactate ([10]; 30 mg/kg p.o.) of 72.5 µg/g, a Glycogen ([10]; 100 mg/kg p.o.) of 1.17 mg/g and a Lactate ([10]; 100 mg/kg p.o.) of 65.5 µg/g. The Glycogen ([10]; 300 mg/kg p.o.) was 1.27 mg/g, the Lactate ([10]; 300 mg/kg p.o.) was 61.0 µg/g and the “effect on the decrease in glycogen level of the injured brain” value ([10]; 100 and 300 mg/kg orally) was “antagonized”. For the same compound, the “effect on the increase in lactate level of the injured brain” value ([10]; 100 and 300 mg/kg orally) was “antagonized”.
